Our source for the IC50 values is patent publication US20230174521A1, “NOVEL DIACYLGLYCERIDE O-ACYLTRANSFERASE 2 INHIBITORS” (Merck Sharp & Dohme LLC, priority 2020, published 2023).

pIC50: −log10 of the molar value.

The target of this assay is T1, human DGAT2 (hDGAT2) (Homo sapiens, UniProt Q96PD7).
T1 construct: made in house; host or cells: Sf-9 insect cells (baculovirus infection); membrane fraction
T1 sequence (Q96PD7 1-388): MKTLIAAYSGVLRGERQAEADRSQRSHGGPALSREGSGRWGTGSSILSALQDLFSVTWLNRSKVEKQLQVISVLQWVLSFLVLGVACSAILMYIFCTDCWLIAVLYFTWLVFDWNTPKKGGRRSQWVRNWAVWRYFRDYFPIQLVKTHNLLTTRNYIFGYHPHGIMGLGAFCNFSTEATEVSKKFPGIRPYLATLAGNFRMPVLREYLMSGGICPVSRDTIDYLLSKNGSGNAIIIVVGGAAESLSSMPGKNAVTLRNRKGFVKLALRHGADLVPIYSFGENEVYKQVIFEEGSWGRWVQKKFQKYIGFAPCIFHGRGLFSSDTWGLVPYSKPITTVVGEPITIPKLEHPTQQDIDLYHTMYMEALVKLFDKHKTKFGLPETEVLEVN
Kind of assay: DGAT2 enzymatic activity assay (LC/MS/MS detection of 13C18-triolein, Sf-9 membrane prep). The class given is biochemical. As to conditions: hDGAT2 Sf-9 membrane, 25 μM diolein, 5 μM 13C oleoyl-CoA, rt. In short, it runs like this: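 Membranes from baculovirus-infected Sf-9 cells expressing untagged human DGAT2 (8 ng/μL), with 25 μM diolein and 5 μM 13C oleoyl-CoA in 100 mM Tris pH 7.0, 20 mM MgCl2, 5% ethanol at rt. 13C18-triolein product quantified by LC/MS/MS against 13C21-triolein internal standard; IC50 by 4-parameter fit.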
A word on the pIC50: it is the IC50 on a negative log10 scale, so that one unit is a factor of ten. High values mean a low IC50, low ones a high IC50. Regarding `CC1(NC(=O)c2cnc3c(c2)c(C(C)(C)O)nn3-c2cc(OCC(F)F)ncc2F)CS(=O)(=O)C1` [Example 45, 1-(2-(2,2-difluoroethoxy)-5-fluoropyridin-4-yl)-3-(2-hydroxypropan-2-yl)-N-(3-methyl-1,1-dioxidothietan-3-yl)-1H-pyrazolo[3,4-b]pyridine-5-carboxamide], the negative logarithm of the IC50 (pIC50) was 7.89.

As to `CC1(NC(=O)c2cnc3c(c2)c(C(C)(C)O)nn3-c2cc(OC(F)F)ncc2F)CS(=O)(=O)C1` [Example 46, l-(2-(difluoromethoxy)-5-fluoropyridin-4-yl)-3-(2-hydroxypropan-2-yl)-N-(3-methyl-1,1-dioxidothietan-3-yl)-1H-pyrazolo[3,4-b]pyridine-5-carboxamide], the pIC50 was 7.51.

`CC1(NC(=O)c2cnc3c(c2)c(C(C)(C)O)nn3-c2cncc(OC(F)F)c2)CS(=O)(=O)C1` [Example 47, 1-(5-(difluoromethoxy)pyridin-3-yl)-3-(2-hydroxypropan-2-yl)-N-(3-methyl-1,1-dioxidothietan-3-yl)-1H-pyrazolo[3,4-b]pyridine-5-carboxamide]: the negative-log IC50 (pIC50) was 7.04.

In the case of `C[C@]1(NC(=O)c2ccc3c(c2)c(N2CCOCC2)nn3-c2cccc(OC(F)F)c2)CCS(=O)(=O)C1` [Example 48, (S)-1-[3-(difluoromethoxy)phenyl]-N-(3-methyl-1,1-dioxo-thiolan-3-yl)-3-morpholino-indazole-5-carboxamide], the pIC50 is 6.43.

In turn, `C[C@]1(NC(=O)c2ccc3c(c2)c(N2CCC[C@H]2C(=O)O)nn3-c2cccc(OC(F)F)c2)CCS(=O)(=O)C1` [Example 49, (2S)-1-[1-[3-(difluoromethoxy)phenyl]-5-[[(3S)-3-methyl-1,1-dioxo-thiolan-3-yl]carbamoyl]indazol-3-yl]pyrrolidine-2-carboxylic acid] showed a pIC50 of 6.45.

As for `CC(C)Nc1nn(-c2cccc(OC(F)F)c2)c2ccc(C(=O)NC3(C)CS(=O)(=O)C3)cc12` [Example 50], the pIC50 was 7.39.

The compound `CC1(NC(=O)c2ccc3c(c2)c(NS(C)(=O)=O)nn3-c2cccc(OC(F)F)c2)CS(=O)(=O)C1` [Example 51] showed a pIC50 of less than 5.00.

`COc1ccc(-n2nc(NCCc3ccccc3)c3cc(C(=O)NCCCN(C)C)ccc32)cc1` [Example 52, N-(3-(dimethylamino)propyl)-1-(4-methoxyphenyl)-3-(phenethylamino)-1H-indazole-5-carboxamide]: the pIC50 is 5.36.

The compound `C[C@]1(NC(=O)c2ccc3c(c2)c(S(C)(=O)=O)nn3-c2cccc(OC(F)F)c2)CCS(=O)(=O)C1` [Example 53, (S)-1-(3-(difluoromethoxy)phenyl)-N-(3-methyl-1,1-dioxidotetrahydrothiophen-3-yl)-3-(methylsulfonyl)-1H-indazole-5-carboxamide] gave a pIC50 of 6.27.

Compound `C[C@]1(NC(=O)c2ccc3c(c2)c(Oc2ccc(F)cc2)nn3-c2cccc(OC(F)F)c2)CCS(=O)(=O)C1` [Example 54, (S)-1-(3-(difluoromethoxy)phenyl)-3-(4-fluorophenoxy)-N-(3-methyl-1,1-dioxidotetrahydrothiophen-3-yl)-1H-indazole-5-carboxamide] had a pIC50 of 9.52. This pIC50 lies 3.25 log units higher than the previous one.

Consider `CC(C)Oc1nn(-c2cc(OC(F)F)ccc2F)c2ncc(C(=O)NC3(C)CS(=O)(=O)C3)cc12` [Example 55, 1-(5-(difluoromethoxy)-2-fluorophenyl)-3-isopropoxy-N-(3-methyl-1,1-dioxidothietan-3-yl)-1H-pyrazolo[3,4-b]pyridine-5-carboxamide], for which the pIC50 was 7.03. This pIC50 lies 2.49 log units lower than the previous one.

In turn, `CC1(NC(=O)c2ccc3c(c2)c(O)nn3-c2cccc(OC(F)F)c2)CS(=O)(=O)C1` [Example 56] had a pIC50 of less than 5.00.
